Results: patent US9988375B2, “Inhibitors of lysine gingipain” (priority 2014, dated 2018)
“Also recorded” adds a separate entry of the source.

Target: Kgp (Porphyromonas gingivalis (strain ATCC 33277 / DSM 20709 / CIP 103683 / JCM 12257 / NCTC 11834 / 2561), UniProt B2RLK2)
Experiment: not given
Conditions: cited from earlier work
In the case of `NCCC[C@H](NC(=O)C1CCCN(C(=O)CCc2ccccc2)C1)C(=O)c1nc2ccccc2s1` (mixture of isomers) [Compound A71561, 1-(3-phenylpropionyl)piperidine-3(R,S)-carboxylic acid [4-amino-1(S)-(benzothiazole-2-carbonyl)butyl]amide], the Ki is given as 0.9 nM.

Target: trypsin (Homo sapiens (Human), UniProt P07477)
Experiment: not given
Conditions: cited from earlier work
For `NCCC[C@H](NC(=O)C1CCCN(C(=O)CCc2ccccc2)C1)C(=O)c1nc2ccccc2s1` (mixture of isomers) [Compound A71561, 1-(3-phenylpropionyl)piperidine-3(R,S)-carboxylic acid [4-amino-1(S)-(benzothiazole-2-carbonyl)butyl]amide], the Ki is listed as 30 nM.

Target: lysine gingipain (Kgp) (Porphyromonas gingivalis (strain ATCC 33277 / DSM 20709 / CIP 103683 / JCM 12257 / NCTC 11834 / 2561), UniProt B2RLK2)
Experiment: Lysine gingipain (Kgp) fluorogenic inhibition assay
Assay type: biochemical
Conditions: 0.1 nM Kgp, 10 uM Z-His-Glu-Lys-MCA, 90 minutes, 37° C., pH 7.5; read-out: Kgp IC50 average
Protocol: The capacities of compounds of the present invention to inhibit the activity of lysine gingipain were measured in a fluorogenic assay similar to those described in Barret Biochemical Journal. 1980, 187(3), 909. The specific assay conditions were as follows. Buffer: pH=7.5, 100 mM Tris-HCl, 75 mM NaCl, 2.5 mM CaCl2, 10 mM cysteine, 1% DMSO after all additions. Protein: 0.1 nM Kgp, isolated from culture of Porphyromonas gingivalis, as described in Pike et al. J. Biol. Chem. 1994, 269(1), 406, and Potempa and Nguyen. Current Protocols in Protein Scienc. 2007, 21.20.1-21.20.27. Fluorogenic substrate: 10 uM Z-His-Glu-Lys-MCA. Time=90 minutes. Temperature=37° C. Each compound: 10 concentrations, starting at either 100 uM or 100 nM, with lower concentrations generated by serial 3-fold dilutions. By testing a range of concentrations for each compound, the concentration required to inhibit the activity of lysine gingipain by 50% (the “IC50”) was determined. Under the described assay conditions, signal-to-noise was excellent, and Z factor was greater than 0.6.
The inhibitory of activity of compounds described herein was tested against Kgp, RgpB, and trypsin.
With `CC(=O)N1CCC[C@H](C(=O)N[C@H](CCCCN)C(=O)c2nc3ccccc3s2)C1` [Compound 10, (3S)-1-acetyl-N-[(1R)-5-amino-1-(1,3-benzothiazole-2-carbonyl)pentyl] piperidine-3-carboxamide] the IC50 was 10 to 25 nM.
Molecule `NCCCC[C@H](NC(=O)C1CCOCC1)C(=O)c1nc2ccccc2s1` [Compound 22, N-[(1S)-5-amino-1-(1,3-benzothiazole-2-carbonyl)pentyl]tetrahydropyran-4-carboxamide] has an IC50 of 10 to 25 nM.
In the case of `NCCCC[C@H](NC(=O)[C@@H]1CCCN(C(=O)CCc2ccccc2)C1)C(=O)c1nc2ccccc2s1` [Compound 4, (3R)—N-[(1S)-5-amino-1-(1,3-benzothiazole-2-carbonyl)pentyl]-1-(3-phenylpropanoyl)piperidine-3-carboxamide], the IC50 is reported as 1 to 10 nM.
In the case of `NCCCC[C@H](NC(=O)C1CCc2ccccc2C1)C(=O)c1nc2ccccc2s1` (stereo partly drawn) [Compound 32, N-[(1S)-5-amino-1-(1,3-benzothiazole-2-carbonyl)pentyl]tetralin-2-carboxamide], the IC50 is reported as 1 to 10 nM.
For `NCCCC[C@H](NC(=O)C1CCCC1)C(=O)c1nccs1` [Compound 42, N-[(1S)-5-amino-1-(thiazole-2-carbonyl)pentyl]cyclopentanecarboxamide], the IC50 was 50 to 100 nM.
In the case of `CC1(C(=O)N[C@@H](CCCCN)C(=O)c2nc3ccccc3s2)CCCCC1` [Compound 33, N-[(1S)-5-amino-1-(1,3-benzothiazole-2-carbonyl)pentyl]-1-methyl-cyclohexanecarboxamide], the IC50 is reported as 1 to 10 nM.
For `NCCCC[C@H](NC(=O)c1cccnc1)C(=O)c1nc2ccccc2s1` [Compound 30, N-[(1S)-5-amino-1-(1,3-benzothiazole-2-carbonyl)pentyl]pyridine-3-carboxamide], the IC50 was 25 to 50 nM.
Work on `NCCCC[C@H](NC(=O)C1CCCOC1)C(=O)c1nc2ccccc2s1` (single isomer, unassigned) [Compound 19] yielded an IC50 of 10 to 25 nM.
`NCCCC[C@H](NC(=O)C1CCCCO1)C(=O)c1nc2ccccc2s1` (single isomer, unassigned) [Compound 26] showed an IC50 of 25 to 50 nM.
`NCCCC[C@H](NC(=O)C1CCCOC1)C(=O)c1nc2ccccc2s1` (single isomer, unassigned) [Compound 18] showed an IC50 of 10 to 25 nM.
`CC(=O)N1CCC[C@@H](C(=O)N[C@H](CCCCN)C(=O)c2nc3ccccc3s2)C1` [Compound 11, (3R)-1-acetyl-N-[(1R)-5-amino-1-(1,3-benzothiazole-2-carbonyl)pentyl]piperidine-3-carboxamide] showed an IC50 of 1 to 10 nM.
`CC(=O)N1CCOC(C(=O)N[C@@H](CCCCN)C(=O)c2nc3ccccc3s2)C1` (stereo partly drawn) [Compound 29, 4-acetyl-N-[(1S)-5-amino-1-(1,3-benzothiazole-2-carbonyl)pentyl]morpholine-2-carboxamide] gave an IC50 of 10 to 25 nM.
`NCCCC[C@H](NC(=O)C1CCCC1)C(=O)c1nc2ccccc2s1` [Compound 24, N-[(1S)-5-amino-1-(1,3-benzothiazole-2-carbonyl)pentyl]cyclo-pentanecarboxamide] showed an IC50 of 1 to 10 nM.
Molecule `CC(=O)N1CCC[C@@H](C(=O)N[C@@H](CCCCN)C(=O)c2nc3ccccc3s2)C1` [Compound 9, (3R)-1-acetyl-N-[(1S)-5-amino-1-(1,3-benzothiazole-2-carbonyl)pentyl]piperidine-3-carboxamide] has an IC50 of 1 to 10 nM.
For `NCCCC[C@H](NC(=O)c1nccs1)C(=O)c1nc2ccccc2s1` [Compound 39, N-[(1S)-5-amino-1-(1,3-benzothiazole-2-carbonyl)pentyl]thiazole-2-carboxamide], the IC50 was 50 to 100 nM.
Work on `NCCCC[C@H](NC(=O)c1cncs1)C(=O)c1nc2ccccc2s1` [Compound 38, N-[(1S)-5-amino-1-(1,3-benzothiazole-2-carbonyl)pentyl]thiazole-5-carboxamide] yielded an IC50 of 10 to 25 nM.
`CC(=O)N1CCC[C@H](C(=O)N[C@@H](CCCCN)C(=O)c2nc3ccccc3s2)C1` [Compound 8, (3S)-1-acetyl-N-[(1S)-5-amino-1-(1,3-benzothiazole-2-carbonyl)pentyl] piperidine-3-carboxamide] gave an IC50 of 10 to 25 nM.
In the case of `NCCCC[C@H](NC(=O)C1CCCc2ccccc21)C(=O)c1nc2ccccc2s1` (stereo partly drawn) [Compound 31, N-[(1S)-5-amino-1-(1,3-benzothiazole-2-carbonyl)pentyl]tetralin-1-carboxamide], the IC50 is reported as 10 to 25 nM.
`NCCCC[C@H](NC(=O)c1ccncc1)C(=O)c1nc2ccccc2s1` [Compound 13, N-[(1S)-5-amino-1-(1,3-benzothiazole-2-carbonyl)pentyl]pyridine-4-carboxamide] showed an IC50 of 25 to 50 nM.
Work on `NCCCCC(NC(=O)[C@@H]1CCCN(C(=O)CCc2ccccc2)C1)C(=O)c1nc2ccccc2s1` (single isomer, unassigned) [Compound 14] yielded an IC50 of 1 to 10 nM.
`NCCCC[C@H](NC(=O)[C@H]1CCCN(C(=O)CCc2ccccc2)C1)C(=O)c1nc2ccccc2s1` [Compound 3, (3S)—N-[(1S)-5-amino-1-(1,3-benzothiazole-2-carbonyl)pentyl]-1-(3-phenylpropanoyl)piperidine-3-carboxamide] gave an IC50 of 10 to 25 nM.
Molecule `NCCCC[C@H](NC(=O)OCc1ccccc1)C(=O)c1nc2ccccc2s1` [Compound 23, Benzyl-N-[(1S)-5-amino-1-(1,3-benzothiazole-2-carbonyl)pentyl]carbamate] has an IC50 of 100 to 250 nM.
`NCCCC[C@H](NC(=O)C1CCCC1)C(=O)c1ccccn1` [Compound 44, N-[(1S)-5-amino-1-(pyridine-2-carbonyl)pentyl]cyclopentanecarboxamide] showed an IC50 greater than 250 nM.
In the case of `NCCCC[C@H](NC(=O)C1CCCO1)C(=O)c1nc2ccccc2s1` (single isomer, unassigned) [Compound 34], the IC50 is reported as 1 to 10 nM.
For `COC1(C(=O)N[C@@H](CCCCN)C(=O)c2nc3ccccc3s2)CCCCC1` [Compound 41, (S)—N-(6-amino-1-(benzo[d]thiazol-2-yl)-1-oxohexan-2-yl)-1-methoxycyclohexanecarboxamide], the IC50 was 10 to 25 nM.
Work on `NCCCC[C@H](NC(=O)C1CCCCO1)C(=O)c1nc2ccccc2s1` (single isomer, unassigned) [Compound 25] yielded an IC50 of 25 to 50 nM.
In the case of `NCCCC[C@H](NC(=O)c1cccc(=O)[nH]1)C(=O)c1nc2ccccc2s1` [Compound 40, N-[(1S)-5-amino-1-(1,3-benzothiazole-2-carbonyl)pentyl]-6-oxo-1H-pyridine-2-carboxamide], the IC50 is reported as 25 to 50 nM.
In the case of `NCCCC[C@H](NC(=O)C1CCCO1)C(=O)c1nc2ccccc2s1` (single isomer, unassigned) [Compound 35], the IC50 is reported as 1 to 10 nM.
`NCCCCC(NC(=O)[C@@H]1CCCN(C(=O)CCc2ccccc2)C1)C(=O)c1nc2ccccc2s1` (single isomer, unassigned) [Compound 15] showed an IC50 of 1 to 10 nM.
For `NCCCC[C@H](NC(=O)c1ccccn1)C(=O)c1nc2ccccc2s1` [Compound 12, N-[(1S)-5-amino-1-(1,3-benzothiazole-2-carbonyl)pentyl]pyridine-2-carboxamide], the IC50 was 50 to 100 nM.
Molecule `NCCCC[C@H](NC(=O)c1ccccc1C(F)(F)F)C(=O)c1nc2ccccc2s1` [Compound 7, N-[(1S)-5-amino-1-(1,3-benzothiazole-2-carbonyl)pentyl]-2-(trifluoromethyl)benzamide] has an IC50 of 25 to 50 nM.

Same assay, conditions: read-out: Kgp IC50
`NCCCC[C@H](NC(=O)[C@@H]1CCCN(C(=O)CCc2ccccc2)C1)C(=O)c1nc2ccccc2s1` [Compound 4, (3R)—N-[(1S)-5-amino-1-(1,3-benzothiazole-2-carbonyl)pentyl]-1-(3-phenylpropanoyl)piperidine-3-carboxamide] showed an IC50 of 1 to 10 nM.
`NCCCC[C@H](NC(=O)[C@H]1CCCN(C(=O)CCc2ccccc2)C1)C(=O)c1nc2ccccc2s1` [Compound 3, (3S)—N-[(1S)-5-amino-1-(1,3-benzothiazole-2-carbonyl)pentyl]-1-(3-phenylpropanoyl)piperidine-3-carboxamide] showed an IC50 of 10 to 25 nM.

Tested on: differentiated SHSY-5Y cells
Experiment: Gingipain-induced death of differentiated SH-SY5Y cells
Assay type: cell-based
Conditions: 100 nM Kgp and/or RgpB for 24 hours
Protocol: SH-SY5Y neuroblastoma cells were cultured and differentiated in the presence of 5 uM retinoic acid based on established methods [Saberi S., et al. Cell Mol Neurobiol 2013. 33: 747-751]. Differentiation into neuronal cells was verified by observation of neurite outgrowth. The differentiated cells were exposed to 100 nM Kgp and/or RgpB for 24 hours, in the presence or absence of Kgp inhibitors. Results were recorded using a digital microscope camera (FIG. 1C, FIG. 2C). Gingipains are toxic to cells while COR compounds prevent the cytotoxicity.
With `NCCCC[C@H](NC(=O)[C@@H]1CCCN(C(=O)CCc2ccccc2)C1)C(=O)c1nc2ccccc2s1` [Compound 4, (3R)—N-[(1S)-5-amino-1-(1,3-benzothiazole-2-carbonyl)pentyl]-1-(3-phenylpropanoyl)piperidine-3-carboxamide] the “prevention of gingipain-induced death of differentiated SHSY-5Y cells” value (“prevention … of differentiated SHSY-5Y cells” for short) was “prevents”.
With `NCCCC[C@H](NC(=O)c1ccccc1)C(=O)c1nc2ccccc2s1` [Compound 1, N-[(1S)-5-amino-1-(1,3-benzothiazole-2-carbonyl)pentyl]benzamide] the “prevention … of differentiated SHSY-5Y cells” value was “prevents; also recorded: effective at preventing cell death”.
For `NCCCC[C@H](NC(=O)[C@H]1CCCN(C(=O)CCc2ccccc2)C1)C(=O)c1nc2ccccc2s1` [Compound 3, (3S)—N-[(1S)-5-amino-1-(1,3-benzothiazole-2-carbonyl)pentyl]-1-(3-phenylpropanoyl)piperidine-3-carboxamide], the “prevention … of differentiated SHSY-5Y cells” value was “does not”.

Same assay, conditions: 100 nM Kgp and/or RgpB for 24 hours; listed as 2-(N—[N-(3-phenylpropanoyl)-(R)-nipecotinyl]-(R)-lysinyl)-benzothiazole
With `NCCCC[C@H](NC(=O)[C@@H]1CCCN(C(=O)CCc2ccccc2)C1)C(=O)c1nc2ccccc2s1` [Compound 4, (3R)—N-[(1S)-5-amino-1-(1,3-benzothiazole-2-carbonyl)pentyl]-1-(3-phenylpropanoyl)piperidine-3-carboxamide] the “prevention … of differentiated SHSY-5Y cells” value was “effective at preventing cell death”.
